According to publication PMC9428149, “Tackling recalcitrant Pseudomonas aeruginosa infections in critical illness via anti-virulence monotherapy” (Nature Communications, 2022):
In brackets after ≈: the same amount, converted by molar mass. Read-outs that look alike come from different tables or passages of the source.

Columns and labels:
[1] = system: MvfR-regulated small molecules in PA14; assay: Production of HAQs, 2-AA, DHQ and AA in PA14 cultures (LC-MS); conditions: Pseudomonas aeruginosa
[2] = system: pyocyanin production in PA14; assay: Pyocyanin production assay; conditions: Pseudomonas aeruginosa
Method: The over-day culture was grown to OD600nm 1.5., diluted again at 1:10,000 in 5 mL LB and incubated with 10 μM of the test compound or the vehicle control for 18 hours at 37 °C and 200 rpm in an incubator shaker. After 18 h, 1 mL of culture was centrifuged for 2 min at 20.000 x g. The supernatant was transferred to a new tube, 200 μL of this were loaded in a flat-bottom 96-well plate, and the pyocyanin levels were quantified by measuring at OD690nm in the infinite F200 plate reader using the Magellan software (Tecan, Switzerland). […] The percent of pyocyanin was calculated compared to the PA14 culture grown in the absence of compounds.
To determine the IC50 of pyocyanin production, we followed the same process as above. […] Using GraphPad Prism Software, the IC50 curve was plotted against percent inhibition of pyocyanin production at each concentration using PA14 in the absence of compounds as a control.

[3] = system: 16 MDR P. aeruginosa clinical isolates; assay: Pyocyanin production in MDR clinical isolates; conditions: Pseudomonas aeruginosa, 18 h, Control about 100, replicates
Method: The over-day culture was grown to OD600nm 1.5., diluted again at 1:10,000 in 5 mL LB and incubated with 10 μM of the test compound or the vehicle control for 18 hours at 37 °C and 200 rpm in an incubator shaker. After 18 h, 1 mL of culture was centrifuged for 2 min at 20.000 x g. The supernatant was transferred to a new tube, 200 μL of this were loaded in a flat-bottom 96-well plate, and the pyocyanin levels were quantified by measuring at OD690nm in the infinite F200 plate reader using the Magellan software (Tecan, Switzerland). The same procedure was also followed for the pyocyanin production assessment for all the P. aeruginosa clinical isolates assessed in this study. The percent of pyocyanin was calculated compared to the PA14 culture grown in the absence of compounds.
Pyocyanin production was measured in 16 P.
aeruginosa clinical isolates 18hr post-growth in the presence or absence of 10 µM of each NAM
compound. The percent of pyocyanin production was calculated by comparing the same strain grown
in the presence of the vehicle control. b.

PA14 AT/P cells = assay: AT/P cells formation assay in PA14; type: cell-based, Pseudomonas aeruginosa; conditions: Pseudomonas aeruginosa, PA14, 24 h, read-out: inhibition of AT/P cells formation
[4] = system: PA14 isogenic mutant ΔmvfR AT/P cells; assay: AT/P cell formation in ΔmvfR mutant (off-target); conditions: Pseudomonas aeruginosa, PA14, 24 h, read-out: AT/P cell formation, ΔmvfR + compound; PA14 about 100; single replicates (Figure 4b)
[5] = system: pqsA promoter (PA14 PpqsA-GFPASV); assay: pqsA-GFP reporter expression; type: cell-based, Pseudomonas aeruginosa; conditions: Pseudomonas aeruginosa
MvfR protein (MvfRC87) = target: T1, MvfR protein (MvfRC87) (Pseudomonas aeruginosa, UniProt Q9I4X0); type: binding; conditions: SPR
T1 construct: The MvfRC87 protein purified as in Xiao et. al., 2006; made in house
T1 sequence (Q9I4X0 87-332): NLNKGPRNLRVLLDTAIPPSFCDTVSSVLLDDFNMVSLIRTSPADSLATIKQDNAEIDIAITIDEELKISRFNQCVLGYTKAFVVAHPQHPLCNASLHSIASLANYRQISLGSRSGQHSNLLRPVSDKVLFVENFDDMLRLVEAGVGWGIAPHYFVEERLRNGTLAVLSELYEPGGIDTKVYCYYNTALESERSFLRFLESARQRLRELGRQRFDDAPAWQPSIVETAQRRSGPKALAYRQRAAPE
Method: The selected compounds were tested for their ability to bind to MvfR. Target validation was carried out by using surface plasmon resonance (SPR). The MvfRC87 protein purified as in Xiao et. al., 2006[33] was covalently immobilized on a CM7 Series S sensor chip using an amine coupling reagent kit (GE Healthcare) at the range level of 3000 to 5000 response units (RU). RU was analyzed by Biacore T200 evaluation software 2.0 (GE Healthcare). The relative response units (RUs) 5 seconds before the end of the association were extracted from the double-reference-corrected sensor grams at different concentrations. These responses were plotted against their respective concentrations for MvfR inhibitor alone and in the presence of native MvfR ligand PQS and compared to the calculated responses for the mixture expected for different binding sites.

[6] = system: mvfR mutant constitutively expressing the pqsABCDE operon; type: cell-based; conditions: Pseudomonas aeruginosa, control about 100, single replicates (Figure 4a)
[7] = Solubility in iPBS pH 7.4 by HPLC; type: physicochemical; conditions: isotonic phosphate buffer (iPBS), aqueous with cosolvent or surfactant or cyclodextrin, kinetic from dmso stock; iPBS pH 7.4, HPLC; read-out: Solubility (M) in PBS
Method: Solubility of the 10 mM compounds dissolved in DMSO was tested in the isotonic phosphate buffer (iPBS) at pH 7.4 using High-Performance Liquid Chromatography (HPLC). For the preparation of iPBS phosphate-buffered saline tab (Sigma-Aldrich 08057-12Tab-F) is dissolved in 500 mL of deionized water and the final composition of the solution contains 10 mM PBS, 2.7 mM KCl, 140 mM NaCl and 0.05% Tween. A total 10 µL of the compound from a 10 mM stock solution in DMSO was added to the vial, and 190 µL of buffer was added to each vial and mixed with shaking at room temperature for 4 h. Thereafter the samples were filtered, and 160 µL of the sample was mixed with 40 µL of DMSO for the final injection. Ibuprofen (high solubility) and Progesterone (low Solubility) were used as standard compounds. Ammonium Acetate aqueous solution (50 mM, pH 7.4) and the acetonitrile were used as mobile phases A and B, respectively. The measurement of concentration was achieved by comparing of UV absorbance of the sample solution and the known standard solution following an HPLC separation using a generic fast gradient method. The solubility of each compound is expressed by the ratio of compound amount in the sample test solution to the amount of compound in the standard solution.

## N#Cc1ccc(NC(=O)CC(=O)Nc2ccc(Br)cc2)cc1 [D42]
[1]; PA14, read-out: % Production 2-AA
  activity at 50 µM: 6%
[1]; PA14, read-out: % Production AA
  activity at 50 µM: 701%
[1]; PA14, read-out: % Production DHQ
  activity at 50 µM: 11%
[1]; PA14, read-out: % Production HHQ
  activity at 50 µM: 2%
[1]; PA14, read-out: % Production HQNO
  activity at 50 µM: 14%
[1]; PA14, read-out: % Production PQS
  activity at 50 µM: 8%
[1]; PA14, read-out: HHQ production inhibition
  inhibition at 50 µM: 89 to 99%
[1]; PA14, read-out: HQNO production inhibition
  inhibition at 50 µM: 40 to 92%
[1]; PA14, read-out: PQS production inhibition
  inhibition at 50 µM: 76 to 97%
[1]; PA14, read-out: inhibition of 2-AA production
  inhibition at 50 µM: 82 to 95%
[1]; PA14, read-out: inhibition of DHQ production
  inhibition at 50 µM: 82 to 96%
[2]; PA14, 18 h, read-out: % Production Pyocyanin
  activity at 50 µM: 6%
[2]; PA14, read-out: IC50 pyocyanin production
  IC50: 1340 nM
[3]; read-out: Pyocyanin production relative to Control, clinical isolate LGR-4325
  activity at 10 µM: 15.2%
[3]; read-out: Pyocyanin production relative to Control, clinical isolate LGR-4326
  activity at 10 µM: 9.87%
[3]; read-out: Pyocyanin production relative to Control, clinical isolate LGR-4327
  activity at 10 µM: 23.8%
[3]; read-out: Pyocyanin production relative to Control, clinical isolate LGR-4328
  activity at 10 µM: 15.7%
[3]; read-out: Pyocyanin production relative to Control, clinical isolate LGR-4330
  activity at 10 µM: 16.4%
[3]; read-out: Pyocyanin production relative to Control, clinical isolate LGR-4331 (first section, r117)
  activity at 10 µM: 17.2%
[3]; read-out: Pyocyanin production relative to Control, clinical isolate LGR-4331 (second section, r140)
  activity at 10 µM: 10%
[3]; read-out: Pyocyanin production relative to Control, clinical isolate LGR-4333
  activity at 10 µM: 11.6%
[3]; read-out: Pyocyanin production relative to Control, clinical isolate LGR-4343
  activity at 10 µM: 15.3%
[3]; read-out: Pyocyanin production relative to Control, clinical isolate LGR-4344
  activity at 10 µM: 19.4%
[3]; read-out: Pyocyanin production relative to Control, clinical isolate LGR-4348
  activity at 10 µM: 11.9%
[3]; read-out: Pyocyanin production relative to Control, clinical isolate LGR-4356
  activity at 10 µM: 16.3%
[3]; read-out: Pyocyanin production relative to Control, clinical isolate LGR-4362
  activity at 10 µM: 26.2%
[3]; read-out: Pyocyanin production relative to Control, clinical isolate LGR-4363
  activity at 10 µM: 20.8%
[3]; read-out: Pyocyanin production relative to Control, clinical isolate LGR-4364 (first section, r326)
  activity at 10 µM: 16.1%
[3]; read-out: Pyocyanin production relative to Control, clinical isolate LGR-4364 (second section, r349)
  activity at 10 µM: 16.4%
PA14 AT/P cells
  inhibition at 10 µM: ≥ 76%
[4]
  activity at 10 µM: 25.1%
[5]; PA14, read-out: % Production pqsA-GFP
  activity at 50 µM: 8%
[5]; PA14, read-out: IC50 pqsA-GFP expression, PA14, 13 concentrations
  IC50: 920 nM
MvfR protein (MvfRC87); Concentration 1.00E-05 M
  Response Unit (RU): 30 RU
MvfR protein (MvfRC87); Concentration 1.00E-06 M
  Response Unit (RU): 23 RU
MvfR protein (MvfRC87); Concentration 1.00E-07 M
  Response Unit (RU): 10.1 RU
MvfR protein (MvfRC87); Concentration 1.00E-08 M
  Response Unit (RU): 2.1 RU
MvfR protein (MvfRC87); Concentration 3.16E-06 M
  Response Unit (RU): 27.4 RU
MvfR protein (MvfRC87); Concentration 3.16E-07 M
  Response Unit (RU): 16.8 RU
MvfR protein (MvfRC87); Concentration 3.16E-08 M
  Response Unit (RU): 5 RU
[6]; read-out: HQNO, ΔmvfR-pqsABCD strain
  activity at 50 µM: 90.7%
[6]; read-out: PQS, ΔmvfR-pqsABCD strain
  activity at 50 µM: 98.9%
[7]
  solubility at 4 h: 1.5e-05 M (≈ 5.37 µg/mL)
